Experimental data reported in patent US5272151A, “Aminoacyl and oligopeptidyl derivatives of allopurinol exhibiting immunostimulatory activity, and pharmaceutical formulations containing these substances” (Sigma-Tau Industrie Farmaceutiche Riunite S.p.A., priority 1991, dated 1993).

Experiments:
[1] = Body and spleen weight of rats in the chemotaxis test (Test 3); assay type: in vivo, rat; conditions: Fisher 344 rats; 25 mg/kg/d i.p. day -5 through day -1
Experimental: (§1) Inbred male Fisher 344 rats (Charles River, Italy), ca. 6 months old, were used in experimental groups of 5 animals. Test animals received the compounds at dosage of 25 mg/kg daily from day -5 through day -1 relative to the day of blood sampling (day 0). The experimental procedure employed is described in Cates, L. K. et al., Modified Boyden chamber method of measuring polymorphonuclear leukocyte chemotaxis, in Leukocyte chemotaxis, Raven Press, New York, N.Y., 1978, p. 67.

rat blood granulocytes = experiment: In vitro-ex vivo chemotactic activity of rat blood granulocytes (modified Boyden chamber); conditions: for Chemotaxis (μm ± S.E.) induced: casein-induced migration; for Chemotaxis (μm ± S.E.) induced / Chemotaxis (μm ± S.E.) spontaneous: 25 mg/kg/d i.p. day -5 through day -1; for Chemotaxis (μm ± S.E.) spontaneous: spontaneous migration (Hank's medium)
Experimental: In vitro-ex vivo effects of ST 689 and ST 789 on the chemotactic activity of rat blood granulocytes.
as §1
Blood was sampled from decapitated animals that, after passage through heparinised gauze, was diluted 1/1 with dextran (1.5% in physiological solution) and allowed to sediment for 90 min. The granulocytes, extracted from whole blood by the usual methods; were brought to a concentration of 2×10^6 cells/mL in Hank's medium. They were then deposited on Millipore filters (3 μm) and placed in migration chambers. These chambers contained either Hank's medium for the evaluation of spontaneous migration, or casein (2 mL of a 5 mg/mL solution) for the evaluation of induced migration. After incubating the samples for 60 min at 37° C. with 5% CO2, the Millipore filters were removed, stained, and inserted between microscope slides. Microscopic observations were performed to determine the furthest distance (in μm) traversed in controls and experimental samples by 2 granulocytes within the rectangular viewing field. Granulocytic migration is expressed as the average value of 10 detailed observations on two filters prepared from each sample.

S. marcescens = experiment: Protective effect in experimentally-infected immunosuppressed mice (S. marcescens); assay type: in vivo; conditions: for % Mortality, S. marcescens: cyclophosphamide-immunodepressed CD1 mice, 25 mg/kg/d i.p. day -5 through day -1, challenge day 0
From the text: Evaluation of the protective effects of ST 689 and ST 789 in experimentally-infected immunosuppressed mice.
Male CDl mice (Charles River, Italy), 6-10 weeks old, were used in experimental groups of 9-20 animals. Systemic infection in the mice was achieved by intrapcritoncal inoculation of a pathogenic species of Klebsiclla (K. oxytoca), Proteus (P. mirabilis), Serratia (S. marcescens),and Hscherichia (E. coli). Eighteen-hour broth cultures were used to prepare infectious inocula that were either sublethal (Proteus) or which corresponded to an LD30 (Serratia) and an LD10 (Escherichia, Klebsiella). The bacterial challenge, inoculated i.p. in 0.5 mL of 5% gastric mucin, was designed to cause the death of animals immunodepressed with cyclophosphamide (administered i.p. in 0.2 mL of sterile physiological solution at a dosage of 100 mg/kg) 5 days prior to infection. The compounds were administered i.p. at daily doses of 25 mg/kg from day -5 to day -1 with respect to the day of bacterial inoculation (day 0). The results are expressed as % mortality and were statistically analysed using Fisher's test (Biostatistics in Pharmacology, vol. 2, Pergamon Press).

[2] = tested on: plaque-forming cells (PFC) in the spleen of mice immunised with sheep red blood cells (SRBC); experiment: Production of primary antibodies (Jerne test) in the spleen of mice immunised with SRBC; assay type: in vivo; conditions: for PFC/10^6 cells (x ± S.E.) / PFC/spleen (x ± S.E.): 25 mg/kg/d i.p. from day -3 through day 3, SRBC immunisation day 0, B6D2F1 mice
Experimental: The effects of ST 689 and ST 789 on the production of primary antibodies (Jerne test) in the spleen of mice immunised with sheep red blood cells (SRBC).
Male hybrid B6 D2 F1 mice (Charles River, Italy), 7-8 weeks old, were used in experimental groups of 6 animals each. In this test, each animal was examined individually.
The compounds were administered intraperitoneally at a daily dose of 25 mg/kg from day -3 to day +3, where day 0 was the day of immunisation. The experimental procedure employed is described in Jerne, N. K. et al., Transpl. Rev., 18:30 (1974). Animals were immunised by i.p. administration of a suspension of SRBC (1×10^8 cells/mouse in 0.2 mL of PBS buffer). Five days following this treatment, the animals were killed and their spleens sterilely removed. The splenocytes were suspended at a concentration of 1×10^7 cells/ml, and 0.1 mL of this splenocyte suspension was mixed with 2 mL of warm Hank's agar medium +0.2 mL of 10% SRBC in PBS buffer and incubated in a Petri dish for 60 min at 37° C. (the samples were tested in triplicate). Complement (2 mL of guinea pig serum diluted 1:10 with Tris buffer) was added, and the Petri dishes incubated for 30 min at 37° C. In the presence of complement the cells secreted anti-SRBC antibodies, which evoked a haemolytic reaction. Such a reaction is indicative of lytic plaques in the samples contained in the Petri dishes.
The results are expressed as: […]
a) number of plaque-forming cells (PFC) in a population of 1×10^6cells;
b) number of PFC in intact spleens.
The values obtained were analysed using Dunnett's test (Biostatistics in Pharmacology, vol. 2, Pergamon Press) to ascertain the statistical significance of differences between the treated and control animal groups.

IL-2 = experiment: In vitro-ex vivo production of IL-2 by rat splenocytes (CTLL-2 bioassay); conditions: for IL-2 in supernates from rat splenocytes: ConA-stimulated splenocytes, 48 h, 25 mg/kg daily i.p. day -5 through day -1
Experimental: In vitro-ex vivo effect of ST 689 and ST 789 on the production of IL-2 by rat splenocytes.
Male Fisher rats (Charles River, Italy), 3 months old, in experimental groups of 5 animals, were treated with the substances at daily dosages of 25 mg/kg from day -5 through day -1 relative to the day the spleens were sampled (day 0). The experimental procedure employed was that reported in [1]. To suspensions of splenocytes, prepared in RPMI 1640 with 10% FCS+1×10^-5 M β-mercaptoethanol and standardised to a concentration of 1×10^7 cells/mL, were added equal volumes of ConA at a concentration of 18 μg/mL/well. After incubating for 48 h at 37° C. in the presence of 5% CO2 the samples were centrifuged and the supernates collected. Serial dilutions of the supernates were added to CTLL-2 cells (a line of T-cells requiring IL-2 for growth) standardised at 5×10^4 cells/mL. Following an overnight incubation, the samples were labelled with ^3 H--TdR (0.5 μCi/well)for 6 h, then the cells were collected on filters using a cell harvester, and counted (cpm) using a β-counter. The results are expressed in units of IL-2, comparing the counts in the samples to a standard curve prepared with purified IL-2 . . . ls1.

| SMILES | Body wt [1] | Spleen wt [1] | Increase of rat granulocyte chemotaxis, in words (rat blood granulocytes; 25 mg/kg/d i.p.) | Chemotaxis (μm ± S.E.) induced (rat blood granulocytes) | Chemotaxis (μm ± S.E.) spontaneous (rat blood granulocytes) | % Mortality, S. marcescens (S. marcescens) | Protective activity in Serratia infection, in words (S. marcescens; immunodepressed mice, 25 mg/kg/d i.p.) | PFC/10^6 cells (x ± S.E.) [2] | PFC/spleen (x ± S.E.) [2] | Activity in terms of the number of PFC per spleen, in words ([2]; 25 mg/kg/d i.p., increase not statistically significant with respect to the control) | IL-2 in supernates from rat splenocytes (IL-2) | Production of IL-2 by splenocytes, in words (IL-2; compared to the same dosage of ST 789) |
| --- | --- | --- | --- | --- | --- | --- | --- | --- | --- | --- | --- | --- |
| O=c1[nH]cnc2c1cnn2CCCCCO [ST 689, 1,5-dihydro-1-(5-hydroxypentyl)-4H-pyrazolo-[3,4-d]-pyrimidin-4-one] | 358.0 ± 9.49 g | 591.4 ± 17.13 mg | more active than ST 789 | 44.8 ± 1.40 μm | 14.40 ± 0.40 μm | 20% | better than ST 789 | 303 ± 47 PFC/10^6 cells | 64839 ± 15985 PFC/spleen | more active than ST 789 | 183.25 ± 22.55 U/mL | increase in the production of IL-2 |
| N=C(N)NCCC[C@H](NC(=O)OCCCCCn1cnc2c(=O)[nH]cnc21)C(=O)O [ST 789, N-alfa-5-(hypoxanthin-9-yl)-pentyloxycarbonylarginine, reference compound] | 345.6 ± 8.84 g | 610.0 ± 22.00 mg |  | 30.4 ± 2.30 μm | 10.01 ± 1.09 μm | 50% |  | 220 ± 30 PFC/10^6 cells | 35011 ± 4761 PFC/spleen |  | 98.43 ± 4.47 U/mL |  |
